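96-well plates; 48 h exposure; 5 concentrations. Endpoints by linear interpolation between flanking doses. Not reached: highest tested concentration assigned. GI50 is the concentration that inhibits growth by half.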 Activity calls are given as the source filed them. No stated cut-off is given here; in the data, active = GI50 up to about 1.1 µM and inactive = higher.
Columns and labels:
Experiment in all cases: NCI anticancer screen, dose series, 48 h
786-0 = tested on: 786-0
U-251 = tested on: U-251
A498 = tested on: A498
CCRF-CEM = tested on: CCRF-CEM
HL-60 = tested on: HL-60
LOX IMVI = tested on: LOX IMVI
M14 = tested on: M14
UO-31 = tested on: UO-31
HOP-92 = tested on: HOP-92
NCI/ADR-RES = tested on: NCI/ADR-RES
MDA-MB-231 = tested on: MDA-MB-231
MCF7 = tested on: MCF7
EKVX = tested on: EKVX
DU-145 = tested on: DU-145
NCI-H460 = tested on: NCI-H460
HCT-116 = tested on: HCT-116
RXF 393 = tested on: RXF 393
MOLT-4 = tested on: MOLT-4
SR = tested on: SR

| SMILES | GI50 (786-0) | GI50 (U-251) | GI50 (A498) | GI50 (CCRF-CEM) | GI50 (HL-60) | GI50 (LOX IMVI) | GI50 (M14) | GI50 (UO-31) | GI50 (HOP-92) | GI50 (NCI/ADR-RES) | GI50 (MDA-MB-231) | GI50 (MCF7) | GI50 (EKVX) | GI50 (DU-145) | GI50 (NCI-H460) | GI50 (HCT-116) | GI50 (RXF 393) | GI50 (MOLT-4) | GI50 (SR) |
| --- | --- | --- | --- | --- | --- | --- | --- | --- | --- | --- | --- | --- | --- | --- | --- | --- | --- | --- | --- |
| COc1ccc(/C(Nc2ccccc2)=C(\CCl)c2ccccc2)cc1OC | 55.8 µM (inactive) | 6.53 µM (inactive) | > 100 µM (inactive) | 17.3 µM (inactive) | 18.9 µM (inactive) | 10.1 µM (inactive) | 41.4 µM (inactive) | 37.2 µM (inactive) | 37.6 µM (inactive) | 32.1 µM (inactive) | 50.4 µM (inactive) | 26.4 µM (inactive) | 24.3 µM (inactive) | 86.3 µM (inactive) | 41.8 µM (inactive) | 17.7 µM (inactive) | 83.8 µM (inactive) | 29.6 µM (inactive) | – |
| CC(C)(C)O/C=C1/C(=O)OC2C[C@@H](O[Si](C)(C)C(C)(C)C)CC12 (some centres not stated) | > 100 µM (inactive) | 48 µM (inactive) | > 100 µM (inactive) | 42.7 µM (inactive) | – | 36.6 µM (inactive) | 54.6 µM (inactive) | 52.2 µM (inactive) | 43.7 µM (inactive) | 55.1 µM (inactive) | > 100 µM (inactive) | 36.1 µM (inactive) | > 100 µM (inactive) | 29.4 µM (inactive) | 79.8 µM (inactive) | 37.1 µM (inactive) | 0.759 µM (active) | – | – |
| CC(=O)c1cn(-c2ccc(Cl)cc2)c(=O)c2c(N)n[nH]c12 | > 100 µM (inactive) | > 100 µM (inactive) | > 100 µM (inactive) | > 100 µM (inactive) | > 100 µM (inactive) | 43 µM (inactive) | – | > 100 µM (inactive) | – | > 100 µM (inactive) | > 100 µM (inactive) | – | > 100 µM (inactive) | > 100 µM (inactive) | > 100 µM (inactive) | > 100 µM (inactive) | > 100 µM (inactive) | > 100 µM (inactive) | > 100 µM (inactive) |
| Nc1ccc2nc3n(c2c1)C(=O)c1ccccc1-3 | > 100 µM (inactive) | > 100 µM (inactive) | – | > 100 µM (inactive) | > 100 µM (inactive) | – | > 100 µM (inactive) | > 100 µM (inactive) | > 100 µM (inactive) | > 100 µM (inactive) | – | > 100 µM (inactive) | > 100 µM (inactive) | > 100 µM (inactive) | > 100 µM (inactive) | > 100 µM (inactive) | > 100 µM (inactive) | > 100 µM (inactive) | > 100 µM (inactive) |
| O=C1C(Br)=C(c2ccccc2)O/C1=C/C(=O)c1ccc(Br)cc1 | 18.4 µM (inactive) | 30.8 µM (inactive) | > 100 µM (inactive) | 26.3 µM (inactive) | 13 µM (inactive) | – | > 100 µM (inactive) | 28.8 µM (inactive) | 49.1 µM (inactive) | – | 34.8 µM (inactive) | 36.7 µM (inactive) | > 100 µM (inactive) | > 100 µM (inactive) | > 100 µM (inactive) | 39.4 µM (inactive) | 17.7 µM (inactive) | 31.6 µM (inactive) | 27.5 µM (inactive) |
| O=C(C1OC1c1ccc(F)cc1)C12CC3CC(CC(C3)C1)C2 (configuration not stated) | 15.2 µM (inactive) | 11.4 µM (inactive) | 28.2 µM (inactive) | 6.95 µM (inactive) | 4.04 µM (inactive) | 2.85 µM (inactive) | 15.7 µM (inactive) | 20.9 µM (inactive) | 20.3 µM (inactive) | 21.2 µM (inactive) | 26.5 µM (inactive) | 22.2 µM (inactive) | 19.3 µM (inactive) | 34 µM (inactive) | 13.3 µM (inactive) | 5.98 µM (inactive) | 17.7 µM (inactive) | 15.8 µM (inactive) | – |
| CC1OC(O)C(O)C(O)C1O (configuration not stated) | > 100 µM (inactive) | > 100 µM (inactive) | > 100 µM (inactive) | – | – | > 100 µM (inactive) | > 100 µM (inactive) | > 100 µM (inactive) | > 100 µM (inactive) | > 100 µM (inactive) | > 100 µM (inactive) | > 100 µM (inactive) | > 100 µM (inactive) | > 100 µM (inactive) | > 100 µM (inactive) | > 100 µM (inactive) | > 100 µM (inactive) | – | – |
| CCCC(=O)N[C@H]1C2C3CC4C5CC(C42)C1(C)C53 (some centres not stated) | > 100 µM (inactive) | > 100 µM (inactive) | > 100 µM (inactive) | > 100 µM (inactive) | > 100 µM (inactive) | > 100 µM (inactive) | > 100 µM (inactive) | > 100 µM (inactive) | > 100 µM (inactive) | – | – | – | > 100 µM (inactive) | – | > 100 µM (inactive) | > 100 µM (inactive) | > 100 µM (inactive) | > 100 µM (inactive) | > 100 µM (inactive) |
| [N-]=[N+]=CC(=O)OC1CCc2ccccc21 (configuration not stated) | 61.9 µM (inactive) | > 100 µM (inactive) | > 100 µM (inactive) | > 10 µM (inactive) | 42.3 µM (inactive) | > 100 µM (inactive) | – | 13.7 µM (inactive) | 44.6 µM (inactive) | – | 44.1 µM (inactive) | 71.1 µM (inactive) | > 100 µM (inactive) | 12.8 µM (inactive) | 47.8 µM (inactive) | > 100 µM (inactive) | 60.3 µM (inactive) | – | > 100 µM (inactive) |
| Clc1ccc(CSc2ncnc3c2ncn3C2CCCCO2)cc1 (configuration not stated) | 22.5 µM (inactive) | 19.6 µM (inactive) | 16.4 µM (inactive) | – | – | 18.5 µM (inactive) | 17.1 µM (inactive) | 1.88 µM (inactive) | 24.7 µM (inactive) | 17.9 µM (inactive) | 24.5 µM (inactive) | 26.6 µM (inactive) | 13.4 µM (inactive) | 31.2 µM (inactive) | 16.9 µM (inactive) | 20.8 µM (inactive) | 25.1 µM (inactive) | – | – |
| COc1ccc(-n2sc3ncccc3c2=O)cc1 | 15.9 µM (inactive) | 23.1 µM (inactive) | – | 8.32 µM (inactive) | 3.58 µM (inactive) | 30.8 µM (inactive) | 21.9 µM (inactive) | 19.1 µM (inactive) | 27.7 µM (inactive) | 25 µM (inactive) | 21.7 µM (inactive) | 19.9 µM (inactive) | 14.8 µM (inactive) | 39.4 µM (inactive) | 34.6 µM (inactive) | 17.7 µM (inactive) | – | 8.18 µM (inactive) | 13.2 µM (inactive) |
| Cc1cc2c(=O)c3ccccc3oc2c(C#N)c1C | > 100 µM (inactive) | > 100 µM (inactive) | > 100 µM (inactive) | > 100 µM (inactive) | > 100 µM (inactive) | – | > 100 µM (inactive) | > 100 µM (inactive) | > 100 µM (inactive) | > 100 µM (inactive) | – | > 100 µM (inactive) | > 100 µM (inactive) | > 100 µM (inactive) | > 100 µM (inactive) | > 100 µM (inactive) | > 100 µM (inactive) | > 100 µM (inactive) | > 100 µM (inactive) |
| CC1(C)C2CCC1(CC(=O)O)C(Cl)C2 (configuration not stated) | > 100 µM (inactive) | > 100 µM (inactive) | > 100 µM (inactive) | > 100 µM (inactive) | > 100 µM (inactive) | > 100 µM (inactive) | > 100 µM (inactive) | > 100 µM (inactive) | – | > 100 µM (inactive) | > 100 µM (inactive) | > 100 µM (inactive) | > 100 µM (inactive) | > 100 µM (inactive) | > 100 µM (inactive) | > 100 µM (inactive) | > 100 µM (inactive) | > 100 µM (inactive) | – |
| CN1CN(c2ccccc2)C2(CCN(CCCN(C)c3ccc(F)cc3)CC2)C1=O | 18.6 µM (inactive) | 18.6 µM (inactive) | 29.4 µM (inactive) | 11.2 µM (inactive) | 3.21 µM (inactive) | 15.8 µM (inactive) | 16.2 µM (inactive) | 16.2 µM (inactive) | – | 20.6 µM (inactive) | 14.3 µM (inactive) | 15.2 µM (inactive) | – | 23.9 µM (inactive) | 16.4 µM (inactive) | 12.8 µM (inactive) | 16.3 µM (inactive) | 5.02 µM (inactive) | – |
| COc1ccc(OC)c(/C=N/N=C2\C(=O)Nc3c(Cl)cc(Cl)cc32)c1 | 33.3 µM (inactive) | 38.7 µM (inactive) | 71.6 µM (inactive) | 59.7 µM (inactive) | 43.8 µM (inactive) | 47.6 µM (inactive) | 68.4 µM (inactive) | 41.6 µM (inactive) | 47.3 µM (inactive) | 20.2 µM (inactive) | 34 µM (inactive) | 46.1 µM (inactive) | 8.67 µM (inactive) | – | 63.5 µM (inactive) | 52.4 µM (inactive) | 66.2 µM (inactive) | 23.8 µM (inactive) | 25.1 µM (inactive) |
| Cc1nc2ccccc2c(=O)n1NC(=O)c1ccccc1O | > 100 µM (inactive) | > 100 µM (inactive) | > 100 µM (inactive) | > 100 µM (inactive) | > 100 µM (inactive) | > 100 µM (inactive) | > 100 µM (inactive) | > 100 µM (inactive) | > 100 µM (inactive) | – | > 100 µM (inactive) | > 100 µM (inactive) | > 100 µM (inactive) | > 100 µM (inactive) | > 100 µM (inactive) | > 100 µM (inactive) | > 100 µM (inactive) | > 100 µM (inactive) | > 100 µM (inactive) |
| CCOc1cc(C2SCC(=O)N2c2ccc(Oc3ccc(Cl)cc3)c(Cl)c2)ccc1O (configuration not stated) | 25 µM (inactive) | 18.4 µM (inactive) | – | 13.7 µM (inactive) | 12.6 µM (inactive) | 19.4 µM (inactive) | 23.5 µM (inactive) | 10 µM (inactive) | 18.6 µM (inactive) | 17.7 µM (inactive) | 19.3 µM (inactive) | 25.1 µM (inactive) | 18 µM (inactive) | 16.6 µM (inactive) | 19.2 µM (inactive) | 12.2 µM (inactive) | – | 18.1 µM (inactive) | 2.04 µM (inactive) |

Source: ChEMBL document CHEMBL1201862, “PubChem BioAssay data set” (2004)
